Reference: patent US9974761B2, “Medications for deposition on biological surfaces” (The Procter & Gamble Company, priority 2014, dated 2018)

Target: T1, human TRPM8
T1 construct: Receptor Activity TRPM8; Receptor Activity TRPM8; other: test compound at 0.001%; relative to WS5 control (30 microMolar); HEK 293 cells; other: test compound at 0.004%; other: test compound at 5.2E−5%; relative to WS5 control
Assay: TRPM8 Protocol-FLIPR Assay (intracellular Ca2+)
Type: cell-based
Settings: for TRPM8 Time Course Activity 5 min % of WS5 / TRPM8 Time Course Activity 10 min % of WS5: dose 12.2 nM, vs 30 uM WS-5
Procedure: To determine whether TRPM8 is activated, the intracellular calcium ion (Ca^2+) level was measured from transfected cells with the TRPM8 receptor sequence (SEQ ID NO: 3). HEK-293 (human embryonic kidney) cells stably transfected with human TRPM8 were grown in 15 ml growth medium (high glucose DMEM (Dulbecco's Modification of Eagle's Medium) supplemented with 10% FBS (fetal bovine serum), 100 ug/ml penicillin/streptomycin, 5 μg/ml blasticindin, and 100 μg/ml zeocin) in a 75 cm^2 flask for 3 days at 37° C. in a mammalian cell culture incubator set at 5% CO2 Cells were detached with addition of 2 ml of trypsin-EDTA buffer (GIBCO® 25200, Invitrogen, Grand Island, N.Y.) for about 2-3 min. Trypsin was inactivated by addition of 8 ml growth medium. Cells were transferred to a 50 ml tube and centrifuged at 850 rpm for 3 minutes to remove medium. After centrifugation, a pellet of cells was formed in the bottom of the tube separating them from the supernatant solution. The supernatant was discarded and the cell pellet was suspended in 1 ml of fresh growth medium to which 5 μl (12.5 μg) of Fluo-4 AM (Molecular Probes, Inc., Eugene, Oreg.) calcium indicator was added and incubated for 30 min with gentle shaking. Fluo-4 AM is a fluorescent dye used for quantifying cellular Ca^2+ concentrations in the 100 nM to 1 microM range. At the end of 30 minutes, 45 ml of assay buffer (1× HBSS (Hank's Balanced Salt Solution), 20 mM HEPES (4-(2-Hydroxyethyl)-1-piperazineethanesulfonic acid)) was added to wash cells and the resulting mixture was then centrifuged at 850 rpm for 3 minutes to remove excess buffer and Fluo-4 AM calcium indicator.
The pelleted cells were re-suspended in 10 ml assay buffer and 90 μl aliquots (˜50,000 cells) per well delivered to a 96-well assay plate containing 10 μl of test compounds (1 mM in assay buffer, […]) or buffer control and incubated at room temperature for 30 minutes. After 30 minutes, a plate was placed into a fluorometric imaging plate reader (FLIPR384 from Molecular Devices, Sunnyvale, Calif.) and basal fluorescence recorded (excitation wave length 488 nm and emission wave length 510 nm). Then 20 μl of […] of TRPM8 agonist WS5 coolant in the assay buffer was added and fluorescence recorded. For determining the direct effect of test compounds on TRPM8, fluorescence was measured immediately after addition of each compound (TABLES 2 and 3). Additional discussion of the FLIPR method can be found in Smart et al., Characterization using FLIPR of human vanilloid VR1 receptor pharmacology, European Journal of Pharmacology 417, 51-58 (2001) and Liu et al., Development and validation of a platelet calcium flux assay using a fluorescent imaging plate reader, Analytical Biochemistry 357, 216-224 (2006).
TRPM8 activation was determined by measuring intracellular calcium ion (Ca^2+) level from transfected cells with the TRPM8 receptor gene, as described in EXAMPLE 1, the results of which are shown in TABLES 4 and 5.

Structure (SMILES)	EC50 (3 min) [nM]	TRPM8 Time Course Activity 5 min % of WS5 (5 min) [%]	TRPM8 Time Course Activity 10 min % of WS5 (10 min) [%]	EC50 (5 min) [nM]	EC50 (10 min) [nM]
CC(C)[C@@H]1CC[C@@H](C)C[C@H]1C(=O)NCC(NC(=O)[C@@H](C)N)c1ccccc1 (single isomer, unassigned) [Compound 28 fraction 1]	1.48	103.8	115.5	–	–
CC(C)[C@@H]1CC[C@@H](C)C[C@H]1C(=O)NCC(NC(=O)[C@@H](C)N)c1ccccc1 (single isomer, unassigned) [Compound 28 fraction 2]	55.5	65.7	71.1	45.7	37.4
